Results on two compounds are retold here after publication PMC12472947 (Pharmaceuticals, 2025).

Test [1] has as its system H2O2-damaged SH-SY5Y cells. The experiment in a line: In vitro neuroprotection against H2O2 in SH-SY5Y (MTT). The note with it: for viability at 12.5 µM: Homo sapiens, SH-SY5Y, read-out: Cell viability (% of control). As to the method: For the neuroprotection assay, the cells previously cultured (Section 3.4.1) were seeded in 96-well plates at a density of 5 × 10^4 cells/well in a volume of 200 µL. The plates were incubated at 37 °C containing 5% CO2 for 24 h. After 24 h, the medium was replaced with the test solutions. […] Finally, the test solutions were removed, the cells were washed with PBS pH 7.4, and the H2O2 solution was added and maintained in contact with the cells for 24 h. After 24 h exposure, the neuroprotective capacity was assessed through cell viability using the MTT assay protocol previously described in Section 3.4.3 [52, 53].

The target of test [2] is electric eel acetylcholinesterase (EeAChE) (Electrophorus electricus, UniProt O42275). The experiment in a line: Enzymatic kinetic study, EeAChE. Format: biochemical. The note with it: AChE. Here is the method: (§1) The enzymatic kinetics of cholinesterase inhibition were determined according to an adapted Ellman’s method. All of the solutions were prepared at 20 °C in 0.02 M Tris-HCl buffer (pH 7.5; ionic strength ~0.02 M), stock solutions of test compounds were prepared in DMSO:EtOH (7:3) mixture (20 mM), and the experiment was conducted in triplicate. To a flat-bottom 96-well transparent plate (path length of 0.6 cm) were added 150 μL of treatment solutions with inhibitors 1a, 1h, and 1j at two different concentrations (Table S1) distributed in eight sets of triplicate each. Eight sets of untreated triplicates were used as a negative control. Following, there were added 60 μL of 5,5′-Dithiobis(2-nitrobenzoic acid) (DTNB, Ellman’s reagent) at 1.1 mM and 30 μL of electric eel acetylcholinesterase (EeAChE) or equine serum butyrylcholinesterase (EqBuChE) at 0.20 U/mL in the presence of 1 mg/mL bovine serum albumin (BSA). […] Ki, Ki’ (competitive and noncompetitive inhibition constants, respectively), Km (Michaelis-Menten constant), and Vmax values were calculated with Graphpad Prism v7.0 using the non-linear regression models for enzyme kinetics inhibition and enzyme kinetics–substrate vs. velocity.
Sequence of electric eel acetylcholinesterase (EeAChE) (O42275 24-633): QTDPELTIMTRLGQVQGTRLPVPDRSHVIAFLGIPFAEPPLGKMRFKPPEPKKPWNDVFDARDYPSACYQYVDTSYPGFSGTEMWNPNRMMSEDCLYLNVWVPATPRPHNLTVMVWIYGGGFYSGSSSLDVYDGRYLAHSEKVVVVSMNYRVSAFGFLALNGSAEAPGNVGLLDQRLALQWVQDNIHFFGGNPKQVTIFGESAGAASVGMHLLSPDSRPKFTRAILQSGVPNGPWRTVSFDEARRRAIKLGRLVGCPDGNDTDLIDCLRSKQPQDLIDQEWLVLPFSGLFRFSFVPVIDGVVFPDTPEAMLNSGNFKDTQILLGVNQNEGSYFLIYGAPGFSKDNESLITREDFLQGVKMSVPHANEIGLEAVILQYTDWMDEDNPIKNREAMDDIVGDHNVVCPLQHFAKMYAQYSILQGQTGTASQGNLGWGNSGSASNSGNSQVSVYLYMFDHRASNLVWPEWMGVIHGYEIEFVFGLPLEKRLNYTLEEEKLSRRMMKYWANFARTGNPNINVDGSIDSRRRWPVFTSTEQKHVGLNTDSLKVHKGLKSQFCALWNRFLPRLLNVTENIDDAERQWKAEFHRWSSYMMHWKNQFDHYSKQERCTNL

Another test deals with T1, hH3R (Homo sapiens, UniProt Q9Y5N1).
T1 construct: expressed in transfected cells; host or cells: HEK-293
T1 sequence (Q9Y5N1 whole entry): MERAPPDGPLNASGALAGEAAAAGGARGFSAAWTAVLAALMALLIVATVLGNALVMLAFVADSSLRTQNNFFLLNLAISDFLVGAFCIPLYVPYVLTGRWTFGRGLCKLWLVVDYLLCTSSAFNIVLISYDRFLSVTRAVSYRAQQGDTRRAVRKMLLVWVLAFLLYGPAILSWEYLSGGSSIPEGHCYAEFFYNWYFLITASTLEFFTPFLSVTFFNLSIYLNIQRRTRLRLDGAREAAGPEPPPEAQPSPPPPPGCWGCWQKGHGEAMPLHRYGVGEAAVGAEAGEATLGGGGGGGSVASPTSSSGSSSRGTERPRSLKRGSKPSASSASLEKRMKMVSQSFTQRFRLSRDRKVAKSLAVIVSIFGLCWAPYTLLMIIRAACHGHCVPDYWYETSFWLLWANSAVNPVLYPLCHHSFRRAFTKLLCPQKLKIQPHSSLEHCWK
The experiment in a line: H3R radioligand displacement assay ([3H]-N-α-methylhistamine). Format: binding. The note with it: 95% confidence interval in brackets; HEK-293 membranes. Here is the method: HEK-293 cells (human embryonic kidney cells) stably expressing hH3R were washed and harvested in PBS buffer (phosphate-buffered saline). […] The cell membrane homogenate was centrifuged (20,000× g, 20 min, 4 °C), and the resulting pellet was resuspended in binding buffer and stored at −80 °C until use.
Prior to experiments, the cell membranes were thawed, homogenized by sonication at 4 °C, and kept in ice-cold binding buffer. Crude membrane extracts (20 μg/well in a final volume of 0.2 mL binding buffer) were incubated with [^3H]-N-α-methylhistamine (2 nM; 78.3 Ci/mmol) and varying concentrations of test compounds. Assays were performed in duplicate, with compound concentrations ranging from 0.01 nM to 100 μM. Incubations proceeded for 90 min at room temperature under continuous agitation.
Bound radioligand was separated from free radioligand by filtration through GF/B filters pretreated with 0.3% (w/v) polyethyleneimine, using a cell harvester. Radioactivity was quantified by liquid scintillation counting. Data were analyzed using GraphPad Prism v8 (San Diego, CA, USA) software, employing non-linear regression analysis.
(In general: Displacement assays read how much labelled ligand stays bound in the presence of the test substance.)

A further test addresses human AChE [hAChE] (Homo sapiens, UniProt P22303). Put plainly: biochemical. Conditions: for IC50: Human AChE, Ellman method, read-out: IC50(nM) ± SD AChE (hAChE) (converted); for SI: SI = EqBChE IC50/hAChE. (In general: In Ellman's method for cholinesterases, released thiocholine reacts with DTNB.)
Test [3] addresses T2, equine serum BChE [EqBChE] (Equus caballus, UniProt P81908).
T2 construct: equine serum BChE [EqBChE]; from tissue; host or cells: equine serum
The experiment in a line: biochemical. The note with it: Ellman method, read-out: IC50(nM) ± SD BChE (EqBChE).

The target of test [4] is T3, equine serum butyrylcholinesterase (EqBuChE) (Equus caballus, UniProt P81908).
T3 construct: equine serum BChE [EqBChE]; from tissue; host or cells: equine serum
T3 sequence (P81908 whole entry): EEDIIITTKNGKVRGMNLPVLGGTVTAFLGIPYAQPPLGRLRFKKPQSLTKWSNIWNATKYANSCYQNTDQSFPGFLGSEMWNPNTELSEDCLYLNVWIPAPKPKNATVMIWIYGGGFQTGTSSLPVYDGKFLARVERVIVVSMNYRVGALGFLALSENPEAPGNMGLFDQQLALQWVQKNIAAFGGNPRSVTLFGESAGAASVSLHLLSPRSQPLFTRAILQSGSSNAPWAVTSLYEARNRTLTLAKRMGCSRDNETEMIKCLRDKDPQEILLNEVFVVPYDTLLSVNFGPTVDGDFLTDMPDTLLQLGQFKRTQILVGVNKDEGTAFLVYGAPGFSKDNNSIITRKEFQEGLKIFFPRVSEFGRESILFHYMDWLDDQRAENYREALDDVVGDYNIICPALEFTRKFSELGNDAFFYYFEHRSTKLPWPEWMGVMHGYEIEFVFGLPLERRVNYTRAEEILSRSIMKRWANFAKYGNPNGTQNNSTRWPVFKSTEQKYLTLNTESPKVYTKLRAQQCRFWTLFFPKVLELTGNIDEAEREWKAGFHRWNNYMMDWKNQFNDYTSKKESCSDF
Put plainly: Enzymatic kinetic study, EqBChE. The class given is biochemical. Conditions: BChE. As to the method:
as §1

Setting [5] is: enzyme-substrate complex, global non-linear regression (Table 2).
Setting [6] is: free enzyme (Table S3), read-out: Ki ± SE (95% CI).
Where [7] appears, read: global non-linear regression, mixed inhibition (Table S3).

“And” between values parts separate entries of the source, which are not always exact repeats. Identical values can stand only once. Like-named read-outs stand apart in the source and are kept apart here. Marks after values point to notes of the source that are not given here.

Sequence of human AChE [hAChE] (P22303 32-614): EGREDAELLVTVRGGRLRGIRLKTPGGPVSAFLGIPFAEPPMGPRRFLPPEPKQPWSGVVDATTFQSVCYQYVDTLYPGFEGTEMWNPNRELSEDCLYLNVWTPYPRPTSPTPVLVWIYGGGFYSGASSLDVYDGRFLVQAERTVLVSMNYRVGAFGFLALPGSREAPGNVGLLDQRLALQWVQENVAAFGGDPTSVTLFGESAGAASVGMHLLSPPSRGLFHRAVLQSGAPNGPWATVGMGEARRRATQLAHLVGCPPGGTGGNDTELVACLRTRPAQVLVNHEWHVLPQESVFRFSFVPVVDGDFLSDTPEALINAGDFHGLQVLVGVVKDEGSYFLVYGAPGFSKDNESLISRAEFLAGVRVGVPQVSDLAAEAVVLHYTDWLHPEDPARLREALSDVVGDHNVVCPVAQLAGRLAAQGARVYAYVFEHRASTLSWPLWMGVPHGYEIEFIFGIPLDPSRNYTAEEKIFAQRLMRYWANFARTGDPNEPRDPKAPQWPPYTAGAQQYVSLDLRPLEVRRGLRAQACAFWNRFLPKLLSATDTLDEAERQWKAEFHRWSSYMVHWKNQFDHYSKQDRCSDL
T2 sequence (P81908 whole entry): as the sequence (P81908 whole entry) above

A word on the viability: it is a per cent measure of how many cells are alive, often set against a control. For orientation: Ki means a dissociation constant, usually derived from enzyme kinetics or from competition with a known ligand. In general, IC50 refers to the concentration that inhibits the measured activity by half. As to `O=c1oc2cc(OCCN3CCCCC3)ccc2cc1-c1cn(Cc2ccccc2)nn1` [Compound 1h, 3-(1-Benzyl-1H-1,2,3-triazol-4-yl)-7-(2-(piperidin-1-yl)ethoxy)-2H-chromen-2-one], in test [1] (12.5 µM), the “neuroprotection against H2O2-induced oxidative stress” value is “neuroprotective effects”. The viability at 12.5 µM in test [1] worked out at 88%. Moreover, the inhibition mechanism entry in test [2] (Lineweaver-Burk plots) and in test [4] (Lineweaver-Burk plots) was “mixed-type inhibition” throughout. Besides, the figures for the “Ki’ (nM) ± SE” value in test [2] (setting [5]) and in test [4] (setting [5]) were 7.17 ± 1.48 nM and 4830 ± 620 nM, respectively. Also, the Ki in test [2] (setting [6]) came out at 4.73 ± 0.878 nM; in test [2] (free enzyme, global non-linear regression to mixed-inhibition equation (Table 2), read-out: Ki (nM) ± SE) it was 4.73 ± 0.88 nM; on hH3R it was 558 nM; in test [4] (competitive inhibition constant (Table S2), read-out: Ki (nM) ± SD), 980 ± 24 nM; in test [4] (setting [6]), 1250 ± 151 nM; in test [4] (free enzyme, global non-linear regression (Table 2), read-out: Ki (nM) ± SE), 1250 ± 150 nM. In addition, the figures for the “α ± SE (95% CI)” value in test [2] (setting [7]) and in test [4] (setting [7]) were 1.516 ± 0.3136 and 3.852 ± 0.4265, respectively. The “Vmax ± SD” value in test [2] (inhibitor 0.005 μM) is 4.45 ± 0.02231 1 × 10^3 nM/min and 4.45 ± 0.02 1 × 10^3 nM/min; in test [2] (inhibitor 0.007 μM), 3.19 ± 0.0981 1 × 10^3 nM/min and 3.19 ± 0.010 1 × 10^3 nM/min; in test [4] (inhibitor 2.8 μM), 3.62 ± 0.1358 1 × 10^3 nM/min and 3.62 ± 0.14 1 × 10^3 nM/min; in test [4] (inhibitor 4.8 μM), 3.40 ± 0.0349 1 × 10^3 nM/min and 3.40 ± 0.03 1 × 10^3 nM/min. Also, the IC50 on human AChE [hAChE] is 115 nM; in test [3], 3790 ± 400 nM. The SI at human AChE [hAChE] turned out to be 33.
Regarding `O=c1oc2cc(OCCCN3CCCCC3)ccc2cc1-c1cn(Cc2ccccc2)nn1` [Compound 1q, 3-(1-Benzyl-1H-1,2,3-triazol-4-yl)-7-(3-(piperidin-1-yl)propoxy)-2H-chromen-2-one], in test [1], the viability at 12.5 µM was determined as 68%. The Ki at hH3R is 151 nM. The IC50 was 1410 nM on human AChE [hAChE] and 3560 ± 190 nM in test [3]. Besides, at human AChE [hAChE], the SI is recorded as ~2 ^e,f.
